Columns and labels:
[1] = tested on: rats; assay: Rat model: powder inhaled, blood glucose compared with insulin formulations without enhancer; type: in vivo; details: for improvement in absorption of insulin: in vivo model; as to Effect: key: +: significant decrease in blood glucose level; (+): moderate decrease in blood glucose level; −: no or very small decrease in blood glucose level
Description: Each of the compounds listed in Table III was tested for its ability to enhance uptake of insulin, and thus affect blood glucose levels, in a rat model. Various forms of insulin were employed: recombinant or semisynthetic human or bovine. Each formulation was prepared as above, drying and processing the insulin/enhancer or insulin/enhancer/lactose solution to produce an inhalable powder.
The powder was administered to rats by inhalation, and the blood glucose levels of the rats were subsequently monitored. These levels were compared to the corresponding values obtained from rats which had inhaled insulin formulations without enhancer.

[2] = tested on: CaCo-2 epithelial cell monolayer; assay: In vitro transport of insulin and markers across CaCo-2 epithelial cell monolayer; type: in vitro ADME; details: 60 min, 37° C.
Excerpt: A standard in vitro assay utilizing an epithelial cell line, CaCo-2 (available through the American Type Culture Collection (ATCC), Rockville, Md., USA), has been developed to assess the ability of various enhancer compounds to promote transport of insulin and other markers across an epithelial cell monolayer, as a model for the epithelial cell layer which functions in the lung to separate the alveolus from the pulmonary blood supply. In this assay, the enhancer and insulin or other marker are dissolved in aqueous solution at various proportions and/or concentrations, and applied to the apical side of the cell monolayer. After 60 min incubation at 37° C. and 95% RH (relative humidity), the amount of the marker on the basolateral side of the cells is determined: for example, by use of a radioactively labelled marker. […] This is true even when insulin is added to the enhancer/mannitol mixture (1:3 sodium caprate:insulin, by weight) (FIG. 9). This concentration of sodium caprate (16 mM) was also found to promote absorption of insulin across the cell monolayer. The amount of insulin which passed across the monolayer doubled in the presence of 16 mM sodium caprate, compared to the amount in the absence of any enhancer. […]

[3] = rats, inhaled powder, Enhancer:Insulin:lactose 2:4:94
[4] = rats, inhaled powder, Enhancer:Insulin:lactose 25:75:0
[5] = tested as enhancer in the method of the invention, animal (rat) model
[6] = rats, inhaled powder, Enhancer:Insulin:lactose 4:4:92

CCCCCCCC(=O)OCC(COP(=O)([O-])OCC[N+](C)(C)C)OC(=O)CCCCCCC (stereo not shown) [Dioctanoylphosphatidylcholine]
Effect [1, 3]: (+)

Dimethyl-β-cyclodextrin
performance as enhancer of insulin absorption in the lung (in words) ([1]; rat, in vivo): absorption enhancing effect | Effect ([1]; rats, inhaled powder, Enhancer:Insulin:lactose 75:25:0): +

CCCCCCCCCCCC(=O)[O-].[Na+] [Sodium laurate]
Effect [1, 4]: (+) | performance as enhancer of insulin absorption in the lung (in words) [1, 5]: perform well

CCCCCCCCCC(=O)[O-].[K+] [Potassium caprate]
Effect ([1]; rats, inhaled powder, Enhancer:Insulin:lactose 27:73:0): + | performance as enhancer of insulin absorption in the lung (in words) [1, 5]: effective

CCCCCCCCCC(=O)[O-].[Na+] [Sodium caprate]
improvement in absorption of insulin ([1]; insulin/sodium caprate 50/50 w/w (50% sodium caprate)): Significant improvement | improvement in absorption of insulin ([1]; insulin/sodium caprate 75/25 w/w (25% sodium caprate)): Significant improvement | improvement in absorption of insulin ([1]; insulin/sodium caprate 82.5/17.5 w/w (17.5% sodium caprate)): intermediate | improvement in absorption of insulin ([1]; insulin/sodium caprate 90/10 w/w (10% sodium caprate)): poor improvement | Effect [1, 6]: + | Effect ([1]; rats, inhaled powder, Enhancer:Insulin:lactose 10:90:0): (+) | Effect ([1]; rats, inhaled powder, Enhancer:Insulin:lactose 17.5:82.5:0): (+) | Effect [1, 4]: + | performance as enhancer of insulin absorption in the lung (in words) [1, 5]: perform well | amount of insulin which passed across the monolayer, compared to absence of any enhancer ([2]; 16 mM sodium caprate, apical to basolateral): doubled | amount of marker (mannitol) which appears on the basolateral side ([2]; at least up to 16 mM sodium caprate, FIG. 8): dependent upon the concentration of enhancer used

C[C@H](CCC(=O)[O-])[C@H]1CC[C@H]2[C@@H]3[C@@H](O)C[C@@H]4C[C@H](O)CC[C@]4(C)[C@H]3CC[C@]12C.[Na+] [Sodium ursodeoxycholate]
performance as enhancer of insulin absorption in the lung (in words) ([1]; rat, in vivo): effectively enhance insulin absorption in the lung | Effect [1, 6]: +

C[C@H](CCC(=O)NCC(=O)[O-])[C@H]1CC[C@H]2[C@@H]3[C@H](O)C[C@@H]4C[C@H](O)CC[C@]4(C)[C@H]3C[C@H](O)[C@]12C.[Na+] [Sodium glycocholate]
performance as enhancer of insulin absorption in the lung (in words) ([1]; rat, in vivo): effectively enhance insulin absorption in the lung | Effect [1, 6]: +

CCCCCCCCCC(=O)OC[C@H](COP(=O)([O-])OCC[N+](C)(C)C)OC(=O)CCCCCCCCC [Didecanoylphospatidylcholine]
Effect ([1]; rats, inhaled powder, Enhancer:Insulin:lactose 4:4:94): −

Lysine caprate
Effect ([1]; rats, inhaled powder, Enhancer:Insulin:lactose 35:65:0): + | performance as enhancer of insulin absorption in the lung (in words) [1, 5]: effective

CCCCCCCC/C=C\CCCCCCCC(=O)[O-].[K+] [Potassium oleate]
Effect [1, 6]: +

C[C@H](CCC(=O)NCCS(=O)(=O)O)[C@H]1CC[C@H]2[C@@H]3[C@H](O)C[C@@H]4C[C@H](O)CC[C@]4(C)[C@H]3C[C@H](O)[C@]12C [Sodium taurocholate]
Effect ([1]; rat, in vivo): + | performance as enhancer of insulin absorption in the lung (in words) ([1]; rat, in vivo): effectively enhance insulin absorption in the lung

Lysophosphatidylcholine
Effect [1, 6]: + | performance as enhancer of insulin absorption in the lung (in words) [1, 5]: effective enhancer

CCCCCCCCCCCCCC(=O)[O-].[Na+] [Sodium myristate]
Effect ([1]; rats, inhaled powder, Enhancer:Insulin:lactose 30:70:0): + | performance as enhancer of insulin absorption in the lung (in words) [1, 5]: perform well

CCCCCCCCOC1O[C@H](CO)[C@@H](O)[C@H](O)[C@H]1O (stereo partly shown) [Octylglucopyranoside]
performance as enhancer of insulin absorption in the lung (in words) ([1]; rat, in vivo): some absorption enhancing properties | Effect [1, 6]: (+)

CCCCCCCC(=O)[O-].[Na+] [Sodium caprylate]
Effect [1, 4]: −

CC(=O)OC1CC2(C)C(CC(O)C3C4(C)CCC(O)C(C)C4CCC32C)C1=C(CCCC(C)C)C(=O)NCCS(=O)(=O)O (stereo not shown) [Sodium taurodihydrofusidate]
performance as enhancer of insulin absorption in the lung (in words) ([1]; rat, in vivo): effectively enhance insulin absorption in the lung | Effect [1, 3]: +

— patent US6846801B1, “Systemic administration of a therapeutic preparation” (AstraZeneca AB, priority 1993, dated 2005)
